Key:
[1] = Liver microsomal stability, mouse; type: in vitro ADME; conditions: male, pH 7.4, liver microsomes
Protocol: (§1) Mouse hepatic microsomes were isolated from pooled (50), perfused livers of male Balb/c mice. Rat hepatic microsomes were isolated from pooled (15), perfused livers of male Wistar rats. Isolation was performed according to the standard protocol (Hill, J. R. in Current Protocols in Pharmacology 7.8.1-7.8.11, Wiley Interscience, 2003). The batches of microsomes were tested for quality control using Imipramine, Propranolol and Verapamil as reference compounds.
(§2) Microsomal incubations were carried out in 96-well plates in 5 aliquots of 40 μL each (one for each time point). Liver microsomal incubation medium contained PBS (100 mM, pH 7.4), MgCl2 (3.3 mM), NADPH (3 mM), glucose-6-phosphate (5.3 mM), glucose-6-phosphate dehydrogenase (0.67 units/ml) with 0.42 mg of liver microsomal protein per ml. Control incubations were performed replacing the NADPH-cofactor system with PBS. Test compound (2 μM, final solvent concentration 1.6%) was incubated with microsomes at 37° C., shaking at 100 rpm. Incubations were performed in duplicates. Five time points over 40 minutes have been analyzed. The reactions were stopped by adding 12 volumes of 90% acetonitrile-water to incubation aliquots, followed by protein sedimentation by centrifuging at 5500 rpm for 3 minutes. […]. Supernatants were analyzed using the HPLC system coupled with tandem mass spectrometer (API3000 PE Sciex). Acquisition and analysis of the data were performed using Analyst 1.5.2 software (PE Sciex). The elimination constant (kel), half-life (t½) and intrinsic clearance (Clint) were determined in plot of […] versus time, using linear regression analysis:
(§3) Mouse hepatic microsomes were isolated from pooled, perfused livers of male CD1 mice. Rat hepatic microsomes were isolated from pooled, perfused livers of male Sprague Dawley rats. Dog hepatic microsomes were isolated from pooled, perfused livers of male Beagle dogs. The batches of microsomes were tested for quality control using Testosterone, Propranolol and Caffeine as reference compounds.
(§4) A 10 mM stock solution of compound in DMSO is diluted three-fold in DMSO. This pre-diluted compound solution is then further diluted to 2 μM in a 50 mM phosphate buffer (PBS, pH 7.4) and pre-warmed at 37° C. This compound dilution is mixed F2 with microsomal/cofactor mix at 37° C. under shaking at 300 rpm. Final reaction conditions are: 100 μL incubation volume, 1 μM of test compound (in duplicate), <0.1% DMSO, 0.5 mg/mL microsomes, 0.6 U/mL Glucose-6-phosphate-dehydrogenase (G6PDH, Roche, 10127671001), 3.3 mM MgCl2 (Sigma, M2670), 3.3 mM glucose-6-phosphate (Sigma, G-7879) and 1.3 mM NADP+ (Sigma, N-0505).
(§5) After 60 min of incubation at 300 rpm and 37° C., the reaction was stopped with 3 volumes of STOP solution (acetonitrile/MeOH 2/1 with diclofenac as internal standard). For the time point zero, 3 volumes of STOP solution were added to the compound dilution before the microsome mix was added. Six time points over 60 minutes have been analyzed. The samples of all time points were centrifuged, filtered and the supernatant analyzed by LCMS/MS (systems API4000).
(§6) The instrument responses (peak areas/IS peak area) were referenced to the zero time-point samples (considered as 100%) in order to determine the percentage of compound remaining.
(§7) Testosterone (1 μM) and Propranolol and Caffeine (1 μM) were used as reference compounds, being unstable and stable compounds respectively. If the microsomal stability values for these controls are not in the range determined by the historical data, the assay is not validated. The solubility of the compound in the final test concentration in 50 mM buffer pH 7.4 is checked by microscope to indicate whether precipitation is observed or not. If a precipitate is observed, no data of microsomal stability is generated.

[2] = Liver microsomal stability, rat; type: in vitro ADME; conditions: male, pH 7.4, liver microsomes
Protocol: as §1, §2, §3, §4, §5, §6, §7

Structure (SMILES): CCCCOC(=O)NS(=O)(=O)c1ccc(C(F)(F)F)cc1N1CCN(Cc2nc3ccccc3n2C)CC1 [Compound A-09, butyl N-[2-[4-[(1-methylbenzimidazol-2-yl)methyl]piperazin-1-yl]-4-(trifluoromethyl)phenyl]sulfonylcarbamate]
- microsomal CLint [1]: 33 µL/min/mg
- microsomal CLint [2]: 33 µL/min/mg

Structure (SMILES): CCCCNC(=O)NS(=O)(=O)c1ccc(C)cc1N1CCN(Cc2nc3ccccc3n2C)CC1 [Compound A-12, 1-butyl-3-[4-methyl-2-[4-[(1-methylbenzimidazol-2-yl)methyl]piperazin-1-yl]phenyl]sulfonyl-urea]
- microsomal CLint [1]: 157 µL/min/mg
- microsomal CLint [2]: 23 µL/min/mg

Structure (SMILES): CC(C)Cc1ccc(-c2nn[nH]n2)c(N2CCN(Cc3nc4ccccc4n3C)CC2)c1 [Compound A-20, 2-[[4-[5-isobutyl-2-(2H-tetrazol-5-yl)-phenyl]piperazin-1-yl]methyl]-1-meth-yl-benzimidazole]
- microsomal CLint [1]: 20 µL/min/mg
- microsomal CLint [2]: 28 µL/min/mg

Structure (SMILES): CC(C)Oc1ccc(-c2nn[nH]n2)c(N2CCN(Cc3nc4ccccc4s3)CC2)c1 [Compound A-51, 2-[[4-[5-isoprop-oxy-2-(2H-tetrazol-5-yl)phenyl]piper-azin-1-yl]methyl]-1,3-benzothiazole]
- microsomal CLint [1]: 4 µL/min/mg
- microsomal CLint [2]: 1 µL/min/mg

Structure (SMILES): CCC1CN(Cc2cccnn2)CCN1c1cc(CC(C)C)cc(F)c1-c1nn[nH]n1 (stereo not drawn) [Compound A-181, 3-[[3-ethyl-4-[3-fluoro-5-isobutyl-2-(2H-tetrazol-5-yl)phenyl]piperazin-1-yl]methyl]pyridazine]
- microsomal CLint [1]: 6 µL/min/mg
- microsomal CLint [2]: 5 µL/min/mg

Structure (SMILES): CC(C)Cc1cc(F)c(-c2nn[nH]n2)c(N2CC(C)N(Cc3cccnn3)CC2C)c1 (stereo not drawn) [Compound A-183, 3-[[4-[3-fluoro-5-isobutyl-2-(2H-tetrazol-5-yl)phen-yl]-2,5-dimethyl-piperazin-1-yl]-methyl]pyridazine]
- microsomal CLint [1]: 12 µL/min/mg
- microsomal CLint [2]: 7 µL/min/mg
